In publication PMC8137473, “Preclinical trial of a MAP4K4 inhibitor to reduce infarct size in the pig: does cardioprotection in human stem cell-derived myocytes predict success in large mammals?” (Basic Research in Cardiology, 2021):

System: swine
Assay: pilot physiological study in healthy, chronically instrumented swine
Assay type: in vivo
Conditions: for LV dP/dtmin: in mmHg/s (unit assumed)
Experimental: Pilot physiological studies were performed in 2 female swine (45 and 85 kg), to confirm the lack of adverse effects from DMX-10001 in healthy myocardium. Animals were chronically instrumented as detailed below. Following a recovery week, animals received the pro-drug DMX-10001, while hemodynamics were recorded. Based on prior pharmacokinetic studies and modeling (Fig. 1b), two different dosing regimens were investigated, a three-step infusion (41 mg/kg/h, 0.5 h + 15.3 mg/kg/h, 2.5 h + 9.8 mg/kg/h, 5 h) versus a logistically simpler two-step approach (60 mg/kg/h, 0.5 h + 17 mg/kg/h, 23.5 h). During infusion of the pro-drug, blood was sampled to measure production of the active form, DMX-5804, by liquid chromatography–mass spectometry (Pharmidex, London, UK) as described.
A chronically instrumented animal received DMX-10001 for 8 h as shown, with a rapid initial infusion then stepwise decreasing concentrations over time. […] HR, heart rate; MAP, mean arterial pressure; CO, cardiac output; SV, stroke volume; SVR, systemic vascular resistance; dP/dtmax, maximal rate of rise in LV pressure; dP/dtmin, maximal rate of fall in LV pressure.
A chronically instrumented animal received DMX-10001 for 24 h as shown, starting with rapid infusion for half an hour then a lower concentration. […] HR, heart rate; MAP, mean arterial pressure; CO, cardiac output; SV, stroke volume; SVR, systemic vascular resistance; dP/dtmax, maximal rate of rise in LV pressure; dP/dtmin, maximal rate of fall in LV pressure.

[1] = animal 1, three-step infusion, 2 min
[2] = animal 1, three-step infusion, 10 min
[3] = animal 1, three-step infusion, 40 min
[4] = animal 1, three-step infusion, 1h
[5] = animal 1, three-step infusion, 2h
[6] = animal 1, three-step infusion, 3h
[7] = animal 1, three-step infusion, 4h
[8] = animal 1, three-step infusion, 6h
[9] = animal 1, three-step infusion, 8h
[10] = animal 1, three-step infusion, 8h 2 min
[11] = animal 1, three-step infusion, 8h 10 min
[12] = animal 1, three-step infusion, 8h 30 min
[13] = animal 1, three-step infusion, Baseline
[14] = animal 2, two-step infusion, 2 min
[15] = animal 2, two-step infusion, 10min
[16] = animal 2, two-step infusion, 30 min
[17] = animal 2, two-step infusion, 40 min
[18] = animal 2, two-step infusion, 2h
[19] = animal 2, two-step infusion, 24h
[20] = animal 2, two-step infusion, 24h 2 min
[21] = animal 2, two-step infusion, 24h 10 min
[22] = animal 2, two-step infusion, 24h 30 min
[23] = animal 2, two-step infusion, 25h
[24] = animal 2, two-step infusion, Baseline

CO [1]: 11.2 L/min
HR [1]: 116 bpm
LV dP/dtmax [1]: 4070 mmHg/s
MAP [1]: 96 mmHg
SV [1]: 97 mL
SVR [1]: 8.6 mmHg/L/min
LV dP/dtmin [1]: -2280
CO [2]: 11.1 L/min
HR [2]: 112 bpm
LV dP/dtmax [2]: 3290 mmHg/s
MAP [2]: 88 mmHg
SV [2]: 99 mL
SVR [2]: 7.9 mmHg/L/min
LV dP/dtmin [2]: -2280
CO [3]: 10.1 L/min
HR [3]: 105 bpm
LV dP/dtmax [3]: 4060 mmHg/s
MAP [3]: 99 mmHg
SV [3]: 96 mL
SVR [3]: 9.8 mmHg/L/min
LV dP/dtmin [3]: -2530
CO [4]: 10.7 L/min
HR [4]: 115 bpm
LV dP/dtmax [4]: 4040 mmHg/s
MAP [4]: 103 mmHg
SV [4]: 93 mL
SVR [4]: 9.7 mmHg/L/min
LV dP/dtmin [4]: -2690
CO [5]: 11.4 L/min
HR [5]: 106 bpm
LV dP/dtmax [5]: 4840 mmHg/s
MAP [5]: 107 mmHg
SV [5]: 108 mL
SVR [5]: 9.4 mmHg/L/min
LV dP/dtmin [5]: -3270
CO [6]: 13.0 L/min
HR [6]: 120 bpm
LV dP/dtmax [6]: 6030 mmHg/s
MAP [6]: 117 mmHg
SV [6]: 108 mL
SVR [6]: 9.0 mmHg/L/min
LV dP/dtmin [6]: -3330
CO [7]: 12.0 L/min
HR [7]: 113 bpm
LV dP/dtmax [7]: 5260 mmHg/s
MAP [7]: 120 mmHg
SV [7]: 106 mL
SVR [7]: 10 mmHg/L/min
LV dP/dtmin [7]: -3020
CO [8]: 12.9 L/min
HR [8]: 134 bpm
LV dP/dtmax [8]: 5430 mmHg/s
MAP [8]: 105 mmHg
SV [8]: 96 mL
SVR [8]: 8.2 mmHg/L/min
LV dP/dtmin [8]: -2830
CO [9]: 11.8 L/min
HR [9]: 111 bpm
LV dP/dtmax [9]: 5020 mmHg/s
MAP [9]: 95 mmHg
SV [9]: 106 mL
SVR [9]: 8.0 mmHg/L/min
CO [10]: 11.1 L/min
HR [10]: 105 bpm
LV dP/dtmax [10]: 4550 mmHg/s
MAP [10]: 92 mmHg
SV [10]: 106 mL
SVR [10]: 8.3 mmHg/L/min
LV dP/dtmin [10]: -2820
CO [11]: 11.4 L/min
HR [11]: 105 bpm
LV dP/dtmax [11]: 4730 mmHg/s
MAP [11]: 102 mmHg
SV [11]: 109 mL
SVR [11]: 8.9 mmHg/L/min
LV dP/dtmin [11]: -3300
CO [12]: 14.3 L/min
HR [12]: 127 bpm
LV dP/dtmax [12]: 5740 mmHg/s
MAP [12]: 101 mmHg
SV [12]: 113 mL
SVR [12]: 7.1 mmHg/L/min
LV dP/dtmin [12]: -3190
LV dP/dtmin [9]: -2920
CO [13]: 11.1 L/min
HR [13]: 117 bpm
LV dP/dtmax [13]: 3470 mmHg/s
MAP [13]: 94 mmHg
SV [13]: 95 mL
SVR [13]: 8.5 mmHg/L/min
LV dP/dtmin [13]: -2500
CO [14]: 9.7 L/min
HR [14]: 116 bpm
LV dP/dtmax [14]: 5860 mmHg/s
MAP [14]: 80 mmHg
SV [14]: 84 mL
SVR [14]: 8.2 mmHg/L/min
LV dP/dtmin [14]: -4170
CO [15]: 6.9 L/min
HR [15]: 90 bpm
LV dP/dtmax [15]: 3400 mmHg/s
MAP [15]: 83 mmHg
SV [15]: 76 mL
SVR [15]: 12.1 mmHg/L/min
LV dP/dtmin [15]: -3670
CO [16]: 6.7 L/min
HR [16]: 92 bpm
LV dP/dtmax [16]: 3420 mmHg/s
MAP [16]: 84 mmHg
SV [16]: 72 mL
SVR [16]: 12.7 mmHg/L/min
LV dP/dtmin [16]: -3430
CO [17]: 6.1 L/min
HR [17]: 83 bpm
LV dP/dtmax [17]: 3680 mmHg/s
MAP [17]: 90 mmHg
SV [17]: 73 mL
SVR [17]: 14.8 mmHg/L/min
LV dP/dtmin [17]: -3640
CO [18]: 7.2 L/min
HR [18]: 91 bpm
LV dP/dtmax [18]: 4250 mmHg/s
MAP [18]: 94 mmHg
SV [18]: 79 mL
SVR [18]: 13.1 mmHg/L/min
LV dP/dtmin [18]: -4120
CO [19]: 8.7 L/min
HR [19]: 107 bpm
LV dP/dtmax [19]: 4260 mmHg/s
MAP [19]: 89 mmHg
SV [19]: 82 mL
SVR [19]: 10.2 mmHg/L/min
CO [20]: 9.1 L/min
HR [20]: 111 bpm
LV dP/dtmax [20]: 5090 mmHg/s
MAP [20]: 72 mmHg
SV [20]: 82 mL
SVR [20]: 7.9 mmHg/L/min
LV dP/dtmin [20]: -3740
CO [21]: 7.0 L/min
HR [21]: 87 bpm
LV dP/dtmax [21]: 3950 mmHg/s
MAP [21]: 97 mmHg
SV [21]: 80 mL
SVR [21]: 13.9 mmHg/L/min
LV dP/dtmin [21]: -4120
CO [22]: 7.7 L/min
HR [22]: 92 bpm
LV dP/dtmax [22]: 4810 mmHg/s
MAP [22]: 144 mmHg
SV [22]: 83 mL
SVR [22]: 18.9 mmHg/L/min
LV dP/dtmin [22]: -4140
LV dP/dtmin [19]: -3380
CO [23]: 9.1 L/min
HR [23]: 115 bpm
LV dP/dtmax [23]: 5360 mmHg/s
MAP [23]: 153 mmHg
SV [23]: 79 mL
SVR [23]: 16.8 mmHg/L/min
LV dP/dtmin [23]: -4460
CO [24]: 7.8 L/min
HR [24]: 101 bpm
LV dP/dtmax [24]: 3800 mmHg/s
MAP [24]: 77 mmHg
SV [24]: 77 mL
SVR [24]: 10.0 mmHg/L/min
LV dP/dtmin [24]: -3040
Compound: COCCOc1ccc(-c2cn(-c3ccccc3)c3ncn(COP(=O)(O)O)c(=O)c23)cc1 [DMX-10001]
adverse effect on hemodynamics or LV function (pilot studies of two healthy animals): No adverse effect
